According to patent US7718715B2, “pH-modified latex comprising a synergistic combination of biocides” (S.C. Johnson & Son, Inc., priority 2004, dated 2010):

Assays:
[1] = tested on: Candida albicans #10231; experiment: Challenge Test (Antimicrobial Effectiveness Test), yeast inoculum; assay type: cell-based; set-up: key to Challenge Test result: Yeast C. albicans: Fail: Recovery of surviving organisms at 14 days was a failing result for the challenge test; conditions: for Challenge Test result: Yeast C. albicans: stabilized acrylic latex A
Procedure: The following cultures were obtained from American Type Culture Collection (ATCC) at 10801 University Boulevard, Manassas, Va. 20110-2209: Escherichia coli #11229, Pseudomonas aeruginosa #15442, Candida albicans #10231, Aspergillus niger #6275.
The yeast inoculum was 0.10 ml of a 72-hr±4 hr culture of C. albicans in 25 grams of sample to give approximately 2×10^5 CFU/g. The C. albicans culture was grown in Potato Dextrose Broth (Difco Laboratories, Detroit, Mich.) at 28° C.
(§1) Each of the 25-g samples were inoculated or challenged with 0.10 ml of the bacterial inoculum, the yeast inoculum, and the mold inoculum respectively on day-0 and day-14. All samples were stored at ambient temperature. Each sample (10 microliter) was streaked on appropriate agar plates (bacteria on Tryptic Soy Agar (Difco Laboratories, Detroit, Mich.) plates with neutralizer and yeast/mold on Potato Dextrose Agar (Difco Laboratories, Detroit, Mich.) plates with neutralizer) on day-1, day-2, day-3, day-7, day-14, day-15, day-16, day-17, day-21, and day-28 to test for survivors. Streaked plates were incubated at appropriate temperature and time (48-hr at 35±2° C. for bacteria and 72-hr at 28±2° C. for yeast/mold). On day-14, each sample was re-inoculated with appropriate inoculum after streaking on agar plates. Plates were read after incubation time. Recovery of surviving organisms at 14 days was a failing result for the challenge test.
Biocides were always added after the reaction has been completed and after the batch has been cooled to <50° C. The desired temperature was dependent on the specific biocide. Many biocides become deactivated if exposed to high temperatures for an extended time. Each biocide was diluted with about 5× its weight with DI water and slowly added to the batch with good agitation. The dilution is to prevent the biocide from shocking the latex. The batch was mixed for a minimum of 20 minutes after the biocide was added to ensure good incorporation. If any temporary destabilization to the latex had occurred, it had time to recover prior to filtration.
The Challenge Test is a qualitative laboratory procedure used to differentiate poorly and marginally preserved products from well-preserved products. Products are intentionally inoculated with test organisms and then evaluated by use of streak plating technique to determine if microbial reduction has been attained.

[2] = tested on: Aspergillus niger #6275; experiment: Challenge Test (Antimicrobial Effectiveness Test), mold inoculum; assay type: cell-based; conditions: stabilized acrylic latex A
Procedure: The following cultures were obtained from American Type Culture Collection (ATCC) at 10801 University Boulevard, Manassas, Va. 20110-2209: Escherichia coli #11229, Pseudomonas aeruginosa #15442, Candida albicans #10231, Aspergillus niger #6275. The mold inoculum was 0.10 ml of A. niger culture specimen in 25 grams of sample to give approximately 2×10^5 CFU/g. The culture specimen was obtained from 7-day-old A. niger culture grown on Sabouraud Dextrose Agar (Difco Laboratories, Detroit, Mich.) with 0.2% Triton X-100 in 0.85% saline. Each of the 25-g samples were inoculated or challenged with 0.10 ml of the bacterial inoculum, the yeast inoculum, and the mold inoculum respectively on day-0 and day-14. All samples were stored at ambient temperature. Each sample (10 microliter) was streaked on appropriate agar plates (bacteria on Tryptic Soy Agar (Difco Laboratories, Detroit, Mich.) plates with neutralizer and yeast/mold on Potato Dextrose Agar (Difco Laboratories, Detroit, Mich.) plates with neutralizer) on day-1, day-2, day-3, day-7, day-14, day-15, day-16, day-17, day-21, and day-28 to test for survivors. Streaked plates were incubated at appropriate temperature and time (48-hr at 35±2° C. for bacteria and 72-hr at 28±2° C. for yeast/mold). On day-14, each sample was re-inoculated with appropriate inoculum after streaking on agar plates. Plates were read after incubation time. Recovery of surviving organisms at 14 days was a failing result for the challenge test. Biocides were always added after the reaction has been completed and after the batch has been cooled to <50° C. The desired temperature was dependent on the specific biocide. Many biocides become deactivated if exposed to high temperatures for an extended time. Each biocide was diluted with about 5× its weight with DI water and slowly added to the batch with good agitation. The dilution is to prevent the biocide from shocking the latex. The batch was mixed for a minimum of 20 minutes after the biocide was added to ensure good incorporation. If any temporary destabilization to the latex had occurred, it had time to recover prior to filtration. The Challenge Test is a qualitative laboratory procedure used to differentiate poorly and marginally preserved products from well-preserved products. Products are intentionally inoculated with test organisms and then evaluated by use of streak plating technique to determine if microbial reduction has been attained.

[3] = tested on: Escherichia coli #11229, Pseudomonas aeruginosa #15442; experiment: Challenge Test (Antimicrobial Effectiveness Test), bacterial inoculum (1:1 mixture); assay type: cell-based, E. coli & P. aeruginosa; conditions: stabilized acrylic latex A
Procedure: The following cultures were obtained from American Type Culture Collection (ATCC) at 10801 University Boulevard, Manassas, Va. 20110-2209: Escherichia coli #11229, Pseudomonas aeruginosa #15442, Candida albicans #10231, Aspergillus niger #6275. The bacterial inoculum was 0.10 ml of a 1:1 mixture of the 24-hr±4 hr culture of E. coli and P. aeruginosa in 25 grams of sample to give approximately 4×10^6 CFU/g. Both E. coli culture and the P. aeruginosa culture were grown in Nutrient Broth (Difco Laboratories, Detroit, Mich.) at 35° C. Each of the 25-g samples were inoculated or challenged with 0.10 ml of the bacterial inoculum, the yeast inoculum, and the mold inoculum respectively on day-0 and day-14. All samples were stored at ambient temperature. Each sample (10 microliter) was streaked on appropriate agar plates (bacteria on Tryptic Soy Agar (Difco Laboratories, Detroit, Mich.) plates with neutralizer and yeast/mold on Potato Dextrose Agar (Difco Laboratories, Detroit, Mich.) plates with neutralizer) on day-1, day-2, day-3, day-7, day-14, day-15, day-16, day-17, day-21, and day-28 to test for survivors. Streaked plates were incubated at appropriate temperature and time (48-hr at 35±2° C. for bacteria and 72-hr at 28±2° C. for yeast/mold). On day-14, each sample was re-inoculated with appropriate inoculum after streaking on agar plates. Plates were read after incubation time. Recovery of surviving organisms at 14 days was a failing result for the challenge test. Biocides were always added after the reaction has been completed and after the batch has been cooled to <50° C. The desired temperature was dependent on the specific biocide. Many biocides become deactivated if exposed to high temperatures for an extended time. Each biocide was diluted with about 5× its weight with DI water and slowly added to the batch with good agitation. The dilution is to prevent the biocide from shocking the latex. The batch was mixed for a minimum of 20 minutes after the biocide was added to ensure good incorporation. If any temporary destabilization to the latex had occurred, it had time to recover prior to filtration. The Challenge Test is a qualitative laboratory procedure used to differentiate poorly and marginally preserved products from well-preserved products. Products are intentionally inoculated with test organisms and then evaluated by use of streak plating technique to determine if microbial reduction has been attained.

[4] = tested on: C. albicans & A. niger; experiment: Challenge Test end point on yeast and mold and Synergy Index (Kull); assay type: cell-based; conditions: Dowicil 75 acting alone (QA); test stabilized acrylic latex A
Procedure: as §1, with “On day-14, each sample was re-inoculated with appropriate inoculum after streaking on agar plates.” left out, “Recovery of surviving organisms at 14 days was a failing result for the challenge test.” left out
Synergism was determined by the method described by F. C. […] Eisman, H. D. Sylwestrowicz, and R. L. Mayer in Applied Microbiology, Volume 9, pages 538-541, 1961 using the ratio determined by • Synergy Index (SI)=Qa/QA+Qb/QB=1 is additivity, <1 is synergism, and >1 is antagonism • where, • Qa=concentration of compound A, in the mixture, producing an end point • QA=concentration of compound A, acting alone, producing an end point • Qb=concentration of compound B, in the mixture, producing an end point • QB=concentration of compound B, acting alone, producing an end point

[5] = 0.20% Dowicil 75, 0.00% Bronopol, DN 12%, pH 6.3
[6] = 0.30% Dowicil 75, 0.00% Bronopol, DN 4%, pH 5.7
[7] = 0.40% Dowicil 75, 0.00% Bronopol, DN 4%, pH 5.75
[8] = 0.40% Dowicil 75, 0.00% Bronopol, DN 17%, pH 6.5

ClC=CC[N+]12CN3CN(CN(C3)C1)C2.[Cl-] [Dowicil 75, 1-(3-chloroallyl)-3,5,7-triaza-1-azoniaadamantane chloride]
Challenge Test result: Yeast C. albicans [1, 5]: Fail | Challenge Test result: Yeast C. albicans [1, 6]: Pass | killing of the yeast (C. albicans) ([1]; 0.4% DOWICIL 75, stabilized acrylic latex A with DN at 17%): failed to kill | Challenge Test result: Yeast C. albicans [1, 7]: Pass | Challenge Test result: Yeast C. albicans [1, 8]: Fail | control of Candida albicans ([1]; maximum allowable level, test stabilized acrylic latex): failed to control | Challenge Test result: Mold A. niger [2, 5]: Pass | Challenge Test result: Mold A. niger [2, 6]: Pass | Challenge Test result: Mold A. niger [2, 7]: Pass | Challenge Test result: Mold A. niger [2, 8]: Pass | Challenge Test result: Bacteria E. coli & P. aeruginosa [3, 5]: Pass | Challenge Test result: Bacteria E. coli & P. aeruginosa [3, 6]: Pass | Challenge Test result: Bacteria E. coli & P. aeruginosa [3, 7]: Pass | Challenge Test result: Bacteria E. coli & P. aeruginosa [3, 8]: Pass | Compound A end-point in % [4]: >0.4%
